The results in this text go back to patent US9937115B2, “Oral care compositions with improved flavor” (priority 2010, dated 2018).

For this assay, the target named is T1, TRPA1 receptor (Homo sapiens, UniProt O75762).
T1 construct: expressed in transfected cells; host or cells: HEK cell line
Put plainly: cell-based. On the set-up: activation: dose or concentration left out as unconfirmed. The method, then:
The term “TRPA1 activator” as used herein refers to any component which at a concentration of 1 mM gives a calcium flux count of at least 1000 counts above the background level of calcium present in the cell according to the FLIPR method as discussed herein. The term “count” is defined as the change in fluorescence of the transfected cell lines due to the influx of calcium across the cell membrane, which reacts with the calcium sensitive dye present within the cells.
In order to select TRPA1 agonists that would be preferred for reducing off-tasting chemical components found in oral care compositions, calcium flux receptor activity on the TRPA1 was utilized as the criteria for selection of actives. With allyl isothiocyanate as the TRPA1 positive control, molecules that directly activated the TRPA1 receptor were screened in dimethylsulfoxide (DMSO). Pure molecules of each material were dissolved in DMSO at a concentration of 100 micormolar and then added to an HEK cell line containing the TRPA1 receptor. If they are TRPA1 agonists, they will cause a calcium flux in the cell which fluoresces and may then be measured using a FLIPR machine.

Where [1] appears, read: HEK293, percentage of the control (allyl isothiocyanate) calcium count, material dissolved in DMSO at 100 micromolar, HEK cells with TRPA1, direct addition, read-out: TRPA1 Direct addition.
Setting [2] is: HEK293, percentage of the control (allyl isothiocyanate) calcium count, material dissolved in DMSO at 100 micromolar, HEK cells with TRPA1, pre-incubation, read-out: TRPA1 Pre-incubation.

Each structure is given as a SMILES string. Like-named read-outs stand apart in the source and are kept apart here. Residues, ends and D or L forms follow the SMILES beside them.
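For TRPA1 Pre-incubation in this document: values above 100 mean more active than the control.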

T1 sequence (O75762 whole entry): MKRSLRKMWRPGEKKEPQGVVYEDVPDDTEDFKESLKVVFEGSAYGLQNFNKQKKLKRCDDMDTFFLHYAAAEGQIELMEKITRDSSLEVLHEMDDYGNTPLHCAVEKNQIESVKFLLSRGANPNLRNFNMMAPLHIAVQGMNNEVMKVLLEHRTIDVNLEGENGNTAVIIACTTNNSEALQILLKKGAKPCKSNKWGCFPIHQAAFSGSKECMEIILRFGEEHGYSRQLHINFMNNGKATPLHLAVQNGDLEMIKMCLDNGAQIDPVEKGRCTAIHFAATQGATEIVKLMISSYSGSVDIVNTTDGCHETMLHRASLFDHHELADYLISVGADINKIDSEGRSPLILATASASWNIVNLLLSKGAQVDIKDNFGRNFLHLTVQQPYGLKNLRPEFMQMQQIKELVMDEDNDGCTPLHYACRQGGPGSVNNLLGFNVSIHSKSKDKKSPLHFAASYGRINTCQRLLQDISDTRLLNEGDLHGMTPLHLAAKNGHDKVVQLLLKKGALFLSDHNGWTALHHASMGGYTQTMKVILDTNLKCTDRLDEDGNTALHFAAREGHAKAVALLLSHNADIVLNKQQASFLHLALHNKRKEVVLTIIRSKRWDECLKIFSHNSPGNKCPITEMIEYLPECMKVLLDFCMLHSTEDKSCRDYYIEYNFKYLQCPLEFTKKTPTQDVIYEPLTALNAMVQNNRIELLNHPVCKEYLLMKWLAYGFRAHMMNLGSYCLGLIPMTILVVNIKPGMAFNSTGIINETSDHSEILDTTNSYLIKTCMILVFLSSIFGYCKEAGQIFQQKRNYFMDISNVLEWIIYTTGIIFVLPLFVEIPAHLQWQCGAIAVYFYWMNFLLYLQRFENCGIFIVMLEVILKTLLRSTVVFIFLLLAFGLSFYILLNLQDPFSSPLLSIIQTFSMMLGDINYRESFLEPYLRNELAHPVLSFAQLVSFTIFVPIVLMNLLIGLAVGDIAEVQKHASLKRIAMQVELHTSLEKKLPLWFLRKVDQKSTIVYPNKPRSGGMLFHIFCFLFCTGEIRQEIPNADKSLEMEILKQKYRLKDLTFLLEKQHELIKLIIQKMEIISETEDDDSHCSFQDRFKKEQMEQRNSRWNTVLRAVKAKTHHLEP

On to `CC1OCCC1=O` (centres unmarked) [2-Methyltetrahydrofuran-3-one], for which the activation at 100 µM under setting [1] is -1.5%. Moreover, the activation under setting [2] came to 77.5%.
Consider `CC(=O)[O-].CC(=O)[O-].[Zn+2]` [Zinc Acetate], for which the “TRPA1 Direct addition” value is recorded as −0.66% and the “TRPA1 Pre-incubation” value turned out to be 21.67%.
With `CCCC=O` [Butyraldehyde], under setting [1], the activation at 100 µM was 28.9%. The activation under setting [2] is 66.2%.
The like results for `CCC(C)COC(C)=O` (centres unmarked) [2-Methylbutyl Acetate] were, in that order, -0.99% and 60.3%.
For `CCC(C)CO` (centres unmarked) [2-Methyl-1-Butanol], in that order: -1.19% and 71.6%.
With `C=CC(C)(O)CCC=C(C)C` (centres unmarked) [Linalool], the activation at 100 µM under setting [1] was -1.58%. Moreover, under setting [2], the activation is 44.8%.
Turning to `CC(C)=CC=O` [3-Methyl-2-Butenal], under setting [1], the activation at 100 µM was 34.4%. Moreover, the activation under setting [2] came out at 66.3%.
For `COC(=O)c1ccccc1N` [Methyl Anthranilate], in that order: 69.6% and 1.27%.
For `CC(C)c1ccc(C=O)cc1` [Cuminaldehyde], in that order: 25.6% and 72.9%.
In the case of `CC(C)CC(=O)OCC=Cc1ccccc1` [Cinnamyl Isovalerate], the activation at 100 µM under setting [1] is -0.43%. The activation under setting [2] was found to be 49.7%.
The like results for `CCc1ccccc1S` [2-Ethylthiophenol] were, in that order, 0.34% and 5.23%.
For `CC(=O)c1cc(C)sc1C` [3-Acetyl-2,5-Dimethylthiophene], in that order: 5.75% and 64.4%.
Turning to `CC(=O)O` [Acetic Acid], the activation reads like this: (HEK293, read-out: TRPA1 Direct addition) 0.27%; (HEK293, read-out: TRPA1 Pre-incubation) 68.5%.
Consider `CC(=O)OCCC(C)C` [Isoamyl Acetate], for which the activation at 100 µM under setting [1] was determined as 0.07%. Besides, the activation under setting [2] amounted to 41%.
The like results for `CCCCCO` [Amyl Alcohol] were, in that order, -1.94% and 85.9%.
For `CCOC(=O)CC(C)C` [Ethyl Isovalerate], in that order: -0.05% and 62.8%.
For `CCCCCCCCCCCCO` [Lauryl Alcohol], in that order: -0.86% and 50.5%.
With `CCCC(=O)OCc1ccccc1` [Benzyl Butyrate], the activation at 100 µM under setting [1] was -3.01%. Also, the activation under setting [2] stood at 58.7%.
Consider `CCCCCC(=O)OCC` [Ethyl Hexanoate], for which, under setting [1], the activation at 100 µM stood at 0.41%. Also, the activation under setting [2] came to 92.3%.
`Cn1cccc1C=O` [1-Methylpyrrole-2-carboxaldehyde]: the activation at 100 µM under setting [1] is -3.47%. Moreover, the activation under setting [2] was -1.04%.
As to `CC1=CCC(=C(C)C)CC1` [Terpinolene], the activation at 100 µM under setting [1] is -17.2%. Further, the activation under setting [2] is 76.2%.
For `CCOC(=O)c1ccccc1O` [Ethyl Salicylate], in that order: -0.53% and 106%.
Take `CC(=O)OCC(C)C` [Isobutyl Acetate]: under setting [1], the activation at 100 µM is -0.23%. The activation under setting [2] is 95.7%.
For `C=CCOC(=O)CCC` [Allyl Butyrate], in that order: 0.02% and 98%.
`CC(C)C(=O)OCCOc1ccccc1` [Phenoxyethyl Isobutyrate]: the activation at 100 µM under setting [1] was -7.84%. Under setting [2], the activation was found to be 36.8%.
For `O=Cc1ccco1` [Furfural], in that order: -0.15% and 69%.
For `CC(C)=CCCC(C)=CCCC(C)=CCO` [Farnesol], in that order: 0.1% and 56.6%.
Turning to `O=C(OCc1ccccc1)c1ccccc1` [Benzyl Benzoate], the activation at 100 µM under setting [1] stood at 53.9%. Under setting [2], the activation came to 18.9%.
As for `c1ccc2scnc2c1` [Benzothiazole], the activation at 100 µM under setting [1] is -2.29%. Moreover, the activation under setting [2] came out at 81.5%.
For `CCCCCCCCCCC(=O)O` [Undecanoic Acid], in that order: -14.6% and 24.7%.
For the compound `CCC=C(C)C(=O)O` [2-Methyl-2-Pentenoic Acid], the activation at 100 µM under setting [1] was -1.27%. The activation under setting [2] turned out to be 73.8%.
For `CCCCCCC(=O)OCC` [Ethyl Heptanoate], in that order: 0.23% and 79%.
Consider `CC/C=C\CCCCCO` [cis-6-Nonen-1-ol], for which, under setting [1], the activation at 100 µM amounted to 2.38%. Moreover, the activation under setting [2] was determined as 98%.
Take `COc1ccccc1O` [Guaiacol]: the activation at 100 µM under setting [1] was -0.08%. Moreover, under setting [2], the activation came out at 87.7%.
Consider `C=CCc1cc(OC)c(O)c(OC)c1` [4-Allyl-2,6-Dimethoxyphenol], for which, under setting [1], the activation at 100 µM came out at 39.2%. Moreover, the activation under setting [2] is 15.5%.
For `CCCCCCOC(=O)CCCCC` [Hexyl Hexanoate], in that order: 0.07% and 67.4%.
As for `COC(=O)[C@H](Cc1ccccc1)NC(=O)[C@@H](N)CC(=O)O` [Aspartame] (H-Asp-Phe-OMe), under setting [1], the activation at 100 µM was -2.15%. The activation under setting [2] came out at 80%.
With `CCCCCCO` [Hexyl Alcohol], the activation at 100 µM under setting [1] is -0.22%. Under setting [2], the activation is 66.2%.
As to `CCC/C=C/C=O` [trans-2-Hexenal], the activation at 100 µM under setting [1] amounted to 1.62%. Further, under setting [2], the activation amounted to 103%.
For `CCCCCC(=O)OCC(C)C` [Isobutyl Hexanoate], under setting [1], the activation at 100 µM was -17.1%. Further, the activation under setting [2] is 53.1%.
The like results for `CC(C)=CCCC(C)CCOCC=O` (centres unmarked) [Citronellyl Oxyacetaldehyde] were, in that order, 148% and -1.16%.
Consider `CCCCOC(=O)[C@H](C)O` [Butyl L-Lactate], for which the activation at 100 µM is, setting by setting: under setting [1], -0.66%; under setting [2], 67.3%.
With `Cc1ncsc1CCO` [4-Methyl-5-Thiazoleethanol], under setting [1], the activation at 100 µM was found to be 0.56%. Moreover, the activation under setting [2] was 72.8%.
For `CCOC(=O)C(C)CC` (centres unmarked) [Ethyl 2-Methylbutyrate], in that order: 0.26% and 82%.
The like results for `CCOC(=O)c1ccccc1` [Ethyl Benzoate] were, in that order, -0.07% and 60.3%.
For `CC(C)=CCC/C(C)=C/CO` [Geraniol], the activation at 100 µM under setting [1] turned out to be 5.19%. Further, the activation under setting [2] is 113%.
With `CC(=O)OCc1ccccc1` [Benzyl Acetate], the activation at 100 µM under setting [1] is -0.31%. Under setting [2], the activation is 74.5%.
The like results for `Cc1coc2c1CCC(C)C2` (centres unmarked) [4,5,6,7-Tetrahydro-3,6-Dimethylbenzofuran] were, in that order, 0.57% and 84.8%.
Turning to `O=C(C=Cc1ccccc1)OCc1ccccc1` [Benzyl Cinnamate], the activation was -2.39% under setting [1] and 81.1% under setting [2].
As for `CCC1OC(=O)C(O)=C1C` (centres unmarked) [5-Ethyl-3-Hydroxy-4-Methyl-2(5H)-Furanone], the activation at 100 µM under setting [1] came to 1.79%. The activation under setting [2] amounted to 72.5%.
As to `OCCCc1ccccc1` [3-Phenyl-1-Propanol], the activation at 100 µM under setting [1] was -0.04%. Further, under setting [2], the activation was found to be 92.2%.
For `O=Cc1ccccc1O` [Salicylaldehyde], in that order: 0.01% and 62.5%.
Consider `CC(=O)OCC(COC(C)=O)OC(C)=O` [Triacetin], for which the activation at 100 µM under setting [1] was -17.1%. Further, the activation under setting [2] was found to be 79.3%.
Take `C=CCOC(=O)CCC1CCCCC1` [Allyl Cyclohexanepropionate]: the activation at 100 µM under setting [1] was 0.45%. In addition, the activation under setting [2] worked out at 81.7%.
Regarding `Cc1nccnc1C` [2,3-Dimethylpyrazine], the activation at 100 µM under setting [1] was -1.77%. Moreover, the activation under setting [2] came to 62.6%.
For `CC1=C(CC=O)C(C)(C)CCC1` [2,6,6-Trimethyl-1-cyclohexene-1-acetaldehyde], in that order: -0.32% and 106%.
The like results for `COc1nccnc1C` [2-Methoxy-3-Methylpyrazine] were, in that order, -0.83% and 84.7%.
On to `CC/C=C\CCOC(=O)C/C=C\CC` [cis-3-Hexenyl cis-3-Hexenoate, [(Z)-hex-3-enyl] (Z)-hex-3-enoate], for which, under setting [1], the activation at 100 µM was -1.04%. Also, the activation under setting [2] was determined as 122%.
For `CCOC(=O)C(C)O` (centres unmarked) [Ethyl Lactate], in that order: -0.14% and 67.4%.
For `C=CCN=C=S` [Allyl Isothiocyanate, reference compound], the activation under setting [2] worked out at 21.6%. Also, under “restated in Table III from Table II”, the “% of AITC Receptor Activation (from Data in Table II)” value is reported as 100%.
Regarding `CC1=C(O)C(=O)C(C)O1` (centres unmarked) [4-Hydroxy-2,5-Dimethyl-3(2H)-Furanone], the activation at 100 µM under setting [1] turned out to be 2.68%. In addition, under setting [2], the activation turned out to be 72%.
For `CC(=O)OCCc1ccccc1` [Phenylethyl Acetate], in that order: -22.5% and 93.8%.
On to `O=C(OCCc1ccccc1)c1ccccc1O` [Phenethyl salicylate], for which, under setting [1], the activation at 100 µM was 7.36%. Also, the activation under setting [2] was found to be 110%.
On to `CC/C=C\CCCCC=O` [cis-6-Nonenal], for which, under setting [1], the activation at 100 µM amounted to 2.76%. Further, the activation under setting [2] stood at 74.7%.
